Measured values published in article PMC9728921, “Characterization of a KDM5 small molecule inhibitor with antiviral activity against hepatitis B virus” (PLOS ONE, 2022).

Key:
Format in all cases: cell-based
Cytotoxicity CC50, PBMC = settings: human, PBMC (peripheral blood mononuclear cells)
Source text: (§1) a Values represent the geometric mean and multiplicative standard deviation of 3 – 5 primary human hepatocyte (PHH) donors or 5 – 10 independent experiments.
(§2) b MT-4: human T-lymphoblastoid cell line; PBMC: peripheral blood mononuclear cell; Gal-HepG2: galactose adapted human hepatoblastoma cell line; Huh-7: human hepatoma cell line; Gal-PC3: galactose adapted human prostate carcinoma cell line; MRC-5: Medical Research Council 5 embryonal lung fibroblast; NRVM: neonatal rat ventricular cardiomyocytes

Cytotoxicity CC50, Huh-7 = settings: human, Huh-7 cells (hepatoma cell line)
Source text: as §1, §2

[1] = Cytotoxicity CC50, Gal-HepG2; settings: human, Gal-HepG2 cells (galactose adapted hepatoblastoma cell line)
Source text: as §1, §2

[2] = Cytotoxicity CC50, Gal-PC3; settings: human
Source text: as §1, §2

Cytotoxicity CC50, PHH = settings: human, primary human hepatocytes (PHH)
Source text: as §1, §2

HBV [3] = assay: Extracellular HBV DNA (vDNA) by qPCR in HBV-infected PHH; settings: Hepatitis B virus
Procedure: (§3) Approximately 24 hours after plating, PHH were infected with HepAD38-derived GTD virus at 500 viral genome equivalents per cell in maintenance medium supplemented with 4% PEG 8000 (Promega, Madison, WI; V3011). For patient sera infections, PHH were infected with 6 μl of patient sera in maintenance medium supplemented with 4% PEG 8000. Infections were allowed to proceed for 20–24 hours before removing remaining extracellular virions by washing with maintenance medium three times. […]
Viral DNA from PHH supernatants was purified using the Qiagen DNeasy 96 kit (Germantown, MD; 69582) following the manufacturer’s recommended protocol. Briefly, 50 μl of supernatant was collected, lysed with an equal volume of Qiagen ATL buffer containing 10% proteinase K, and then incubated at 56°C for 10 minutes. Lysates were then mixed with 100 μl of […] containing ethanol, transferred into the DNeasy 96 well plate, and placed onto a vacuum manifold (Qiagen; 19504). The vacuum was applied to bind DNA to the DNeasy membrane while contaminants passed through. DNA bound to the membrane was washed first with 500 μl of AW1followed by 500 μl of AW2 buffer. After washing, plates were centrifuged (Sigma Model 4-16S) at 6000 rpm for 2 minutes. DNA was then eluted with 100 μl of pre-warmed AE buffer by a final centrifugation step of 6000 rpm for 2 minutes.
Quantification of vDNA by qPCR (quantitative polymerase chain reaction) amplification of the HBVX region of the genome was performed by combining 5 μl of DNA, 900 nM of forward primer (5’[…] 3’), 900 nM of reverse primer (5’[…]-3’), 0.2 μM TaqMan probe (5’ [6FAM] […] [NFQ-MGB] 3’), and 1X TaqMan Fast Advanced Master Mix (Thermo Fisher Scientific; 4444557) for a total reaction volume of 20 μl in 96-well PCR plates (Thermo Fisher Scientific; 4346906). qPCR was carried out on a real-time PCR system (Thermo Fisher Scientific; QuantiStudio 7 Flex) using the following conditions: 95°C for 20 seconds, followed by 40 cycles of 95°C for 1 second and 60°C for 20 second. A plasmid containing the HBV full genome was used for the standard curve.
(§4) Antiviral activity of test compounds was determined from vRNA, vDNA, HBeAg, and HBsAg data by comparing compound-treated PHH to DMSO (vehicle)-treated PHH to generate a percent of DMSO control value (% DMSO control). The % DMSO control was calculated by the following equation: %DMSOControl=100xXc/XD where Xc is the signal from the compound-treated PHH and XD is the signal from the DMSO-treated PHH. The % DMSO control for vRNA, vDNA, HBeAg, HBsAg, GAPDH, or RPLP0 was plotted versus the log of each compound concentration in GraphPad Prism (version 6; Graphpad Software, LaJolla, CA) to generate dose-response curves. […] Dose-response curves were fitted using the nonlinear regression equation “log(agonist) versus response–variable slope (four parameters)” in GraphPad Prism to determine EC50 values.

HBV [4] = assay: Intracellular HBV RNA (vRNA) by qRT-PCR in HBV-infected PHH; settings: Hepatitis B virus
Procedure: as §3
Intracellular HBV viral RNA was isolated from PHH using the RNeasy 96 kit (Qiagen, 74182) following the manufacturer’s recommended protocol. Briefly, 125 μl of Qiagen RLT lysis buffer was added to PHH. The PHH lysate was then thoroughly mixed with 125 μl of 70% ethanol, transferred into a RNeasy 96 well plate, and placed onto a vacuum manifold (Qiagen; 19504). The plate was washed using RW1 and RPE buffers, followed by centrifugation (Sigma-Aldrich, Model 4-16S) at 6000 rpm for 2 minutes. The RNA was then eluted twice with 60 μl of nuclease free water for a total of 120 μl RNA.
After elution, DNase digestion by Turbo DNase (Thermo Fisher Scientific; AM2239) was performed to remove any contaminating DNA. After 30 minutes of DNase treatment at 37°C, Turbo DNase was inactivated by adding 15 mM of EDTA and heating the reaction to 75°C for 10 minutes in a thermo cycler (Thermo Fisher Scientific; Veriti 96 Well Thermal Cycler).
GAPDH or RPLP0 mRNA expression was used to normalize target gene expression. Levels of HBV RNA for all donors were calculated as fold change relative to no drug treated sample using the 2-ΔΔCt method.
as §4

[5] = read-out: vDNA EC50, PHH donor BCD, HBV GTD, treated every three to four days for 14 days
[6] = read-out: vDNA EC50, PHH donor Hu276, HBV GTD, treated every three to four days for 14 days
[7] = read-out: vDNA EC50, PHH donor Hu349, HBV GTD, treated every three to four days for 14 days
[8] = read-out: vDNA EC50, PHH donor Hu4167, HBV GTD, treated every three to four days for 14 days
[9] = read-out: vDNA EC50, PHH donor Hu7272, HBV GTD, treated every three to four days for 14 days
[10] = read-out: vDNA EC50, PHH donor Hu8130, HBV GTD, treated every three to four days for 14 days
[11] = read-out: vDNA EC50, PHH donor Hu8181, HBV GTD, treated every three to four days for 14 days
[12] = read-out: vRNA EC50, PHH donor BCD, HBV GTD, treated every three to four days for 14 days
[13] = read-out: vRNA EC50, PHH donor Hu276, HBV GTD, treated every three to four days for 14 days
[14] = read-out: vRNA EC50, PHH donor Hu349, HBV GTD, treated every three to four days for 14 days
[15] = read-out: vRNA EC50, PHH donor Hu4167, HBV GTD, treated every three to four days for 14 days
[16] = read-out: vRNA EC50, PHH donor Hu7272, HBV GTD, treated every three to four days for 14 days
[17] = read-out: vRNA EC50, PHH donor Hu8130, HBV GTD, treated every three to four days for 14 days
[18] = read-out: vRNA EC50, PHH donor Hu8181, HBV GTD, treated every three to four days for 14 days

In the case of `CCOC(=O)c1ccnc(CNCC(=O)N(CC)CCN(C)C)c1` [GS-5801], the CC50 (Cytotoxicity CC50, PBMC) is reported as over 44 µM, the CC50 (Cytotoxicity CC50, Huh-7) is reported as over 44 µM and the CC50 [1] is reported as over 44 µM. For the same compound, the CC50 [2] was over 44 µM, the CC50 (Cytotoxicity CC50, PHH) was over 50 µM and the EC50 (HBV [3]; 336 h, read-out: EC50 range across genotypes, extracellular HBV DNA, range across genotypes, 14 days of dosing) was 79 to 250 nM. For the same compound, the EC50 (HBV [3]; 336 h, read-out: EC50 range for extracellular DNA, range over the seven PHH donors tested, HBV GTD, Day 14) was 7.1 to 1300 nM, the EC50 (HBV [3]; 336 h, read-out: median EC50, extracellular HBV DNA, median across HBV genotypes, 14 days of dosing) was 200 nM and the EC50 (HBV [3]; [5]) was 7.1 nM. The EC50 (HBV [3]; [6]) was 70 nM, the EC50 (HBV [3]; [7]) was 230 nM and the EC50 (HBV [3]; [8]) was 110 nM. The EC50 (HBV [3]; [9]) was 1100 nM, the EC50 (HBV [3]; [10]) was 1300 nM and the EC50 (HBV [3]; [11]) was 140 nM. It also gave an EC50 (HBV [3]; read-out: vDNA EC50, PHH infected with HBV GTA, treated every three to four days for 13 days) of 170 nM, an EC50 (HBV [3]; read-out: vDNA EC50, PHH infected with HBV GTC, treated every three to four days for 13 days) of 79 nM and an EC50 (HBV [3]; read-out: vDNA EC50, PHH infected with HBV GTD, treated every three to four days for 13 days (Table 3)) of 220 nM. For the same compound, the EC50 (HBV [3]; read-out: vDNA EC50, PHH infected with HBV GTE, treated every three to four days for 13 days) was 250 nM, the EC50 (HBV [4]; 336 h, read-out: EC50 range across genotypes, intracellular HBV RNA, range across genotypes, 14 days of dosing) was 51 to 2700 nM and the EC50 (HBV [4]; 336 h, read-out: EC50 range for intracellular RNA, range over the seven PHH donors tested, HBV GTD, Day 14) was 34 to 1100 nM. The EC50 (HBV [4]; [12]) was 34 nM, the EC50 (HBV [4]; [13]) was 42 nM and the EC50 (HBV [4]; [14]) was 430 nM. It also gave an EC50 (HBV [4]; [15]) of 47 nM, an EC50 (HBV [4]; [16]) of 930 nM and an EC50 (HBV [4]; [17]) of 1100 nM. The EC50 (HBV [4]; [18]) was 160 nM, the EC50 (HBV [4]; read-out: vRNA EC50, PHH infected with HBV GTA, treated every three to four days for 13 days) was 1800 nM and the EC50 (HBV [4]; read-out: vRNA EC50, PHH infected with HBV GTC, treated every three to four days for 13 days) was 51 nM. For the same compound, the EC50 (HBV [4]; read-out: vRNA EC50, PHH infected with HBV GTD, treated every three to four days for 13 days (Table 3)) was 430 nM and the EC50 (HBV [4]; read-out: vRNA EC50, PHH infected with HBV GTE, treated every three to four days for 13 days) was 2700 nM.

For `CCN(CCN(C)C)C(=O)CNCc1cc(C(=O)O)ccn1` [GS-080], the CC50 (Cytotoxicity CC50, PBMC) was over 44 µM, the CC50 (Cytotoxicity CC50, Huh-7) was over 44 µM and the CC50 [1] was over 44 µM. The CC50 [2] was over 44 µM and the CC50 (Cytotoxicity CC50, PHH) was over 50 µM.

In the case of `CCOC(=O)c1cc(CNCC(=O)N(CC)CCN(C)C)ncc1Br` [GS-420], the EC50 (HBV [3]; [5]) is reported as over 10000 nM, the EC50 (HBV [3]; [6]) is reported as over 10000 nM and the EC50 (HBV [3]; [7]) is reported as over 10000 nM. For the same compound, the EC50 (HBV [3]; [8]) was over 10000 nM, the EC50 (HBV [3]; [9]) was over 10000 nM and the EC50 (HBV [3]; [10]) was over 10000 nM. It also gave an EC50 (HBV [3]; [11]) of over 10000 nM, an EC50 (HBV [4]; [12]) of over 10000 nM and an EC50 (HBV [4]; [13]) of over 10000 nM. It also gave an EC50 (HBV [4]; [14]) of over 10000 nM, an EC50 (HBV [4]; [15]) of over 10000 nM and an EC50 (HBV [4]; [16]) of over 10000 nM. It also gave an EC50 (HBV [4]; [17]) of over 10000 nM and an EC50 (HBV [4]; [18]) of over 10000 nM.
